The nature of this data set: Human HepG2 cell viability assay in 384 well format. The format is toxicity, cell-based. On the set-up: dose 125 nL, time 70.5 hour; concentration not given beside the values. The following applies: HepG2 cells, read-out: Inhibition.

On to `O=C(c1ccc[nH]1)N1CCCC2(CCCN2Cc2cccnc2)C1` (stereo not drawn), for which the cytotoxicity at 70.5 h was determined as 11.9%. For `O=C(C1CC1)N1CC[C@H]2[C@@H]1CCC(=O)N2c1ccccc1`, the cytotoxicity at 70.5 h was -2.42%. In the case of `CCS(=O)(=O)NCC1OCCc2cn(CCOC)nc21` (stereo not drawn), the cytotoxicity at 70.5 h was -3.26%. The same measure for `COC[C@H]1CC[C@H]2[C@H](CCN2S(=O)(=O)Cc2ccccc2)O1`: -4.05%; for `Cc1cc(C(=O)N2CCCC3(CCCN3Cc3cccnc3)C2)[nH]n1` (stereo not drawn): 12.8%; for `CS(=O)(=O)N1CCC2(CC1)CC(OCC1CCOCC1)CO2` (stereo not drawn): -7.58%. The same measure for `Cc1ccccc1C(=O)N1CCCn2nnc(Cn3cccn3)c2C1`: -9.23%. For `CCS(=O)(=O)N1CC[C@H]2OCC[C@@]2(c2nnc(C)o2)C1`, the cytotoxicity at 70.5 h was -7.55%.

As to `COCC1CN(CC2CCOCC2)Cc2cn(CC3CCCC3)nc21` (stereo not drawn), the cytotoxicity at 70.5 h is -7.67%. The same measure for `O=C(c1ccc[nH]1)N1CCOC2(COCCN(c3cncnc3)C2)C1` (stereo not drawn): -7.73%; for `COCC1CN(Cc2ccoc2)Cc2cn(C)nc21` (stereo not drawn): -7.39%; for `Cc1noc(C2CN(S(C)(=O)=O)Cc3ccnn3C2)n1` (stereo not drawn): -7.77%. The same measure for `Cc1noc(C)c1CN1C[C@@H](OCC(=O)N(C)C)[C@H]2OCCC[C@H]21`: -9.4%; for `O=S(=O)(C1CC1)N1CC[C@]2(C[C@H](OCC3CCOCC3)CO2)C1`: -9.21%; for `CCCS(=O)(=O)N1CC[C@H]2OCC[C@@]2(c2nnc(C)o2)C1`: 8.91%. The same measure for `Cc1nnc([C@@]23CCO[C@@H]2CCN(S(C)(=O)=O)C3)o1`: -0.978%; for `Cc1noc(C2CN(S(=O)(=O)C3CC3)Cc3ccnn3C2)n1` (stereo not drawn): 10.2%; for `CN(C)C(=O)c1n[nH]c2c1CCN(Cc1nccs1)C2`: -4.93%. In the case of `CS(=O)(=O)N1CCCC12CCCN(C(=O)c1ccncc1)C2` (stereo not drawn), the cytotoxicity at 70.5 h was -7.69%. The same measure for `Cc1cnc(N2CCC3(CC2)CC3CNC(=O)C2CCC2)nc1` (stereo not drawn): -1.64%; for `CN(C)C[C@H]1OC[C@@H]2CCN(C(=O)c3ccc[nH]3)C[C@@H]21`: -4.7%; for `CN1C[C@@H]2COC[C@]2(C(=O)NCCc2cccs2)C1`: -5.55%. The same measure for `CCCS(=O)(=O)N1Cc2ccnn2CC(c2nc(C)no2)C1` (stereo not drawn): -4.93%; for `COc1ccc(N2CCCC3(C2)CN(c2cccnc2)CCO3)cc1` (stereo not drawn): -9.47%; for `Cc1ccc(Nc2ncnc3c2CCN(CC2CCOC2)CC3)cc1` (stereo not drawn): -7.38%. The same measure for `c1cnc(N2CCO[C@H]3CN(Cc4csnn4)C[C@H]32)cn1`: -11.1%; for `Cn1cc(CN2CCC3(CCC(C(=O)NCC4CC4)C3)CC2)cn1` (stereo not drawn): -9.54%; for `Cc1ccsc1C(=O)N1CC[C@H]2CO[C@H](CN(C)C)[C@H]2C1`: -6.98%.

On to `O=C(c1ccncc1)N1CCOC2(COCCN(c3cncnc3)C2)C1` (stereo not drawn), for which the cytotoxicity at 70.5 h is -11.1%. In the case of `CS(=O)(=O)N1CCC2(CC1)COC(COc1cccnc1)C2` (stereo not drawn), the cytotoxicity at 70.5 h was -8.18%.

As for `CC(C)CCN1CCC2(CCCN(c3nncs3)C2)C1` (stereo not drawn), the cytotoxicity at 70.5 h is -5.61%. The same measure for `Cc1nc(C)n(CC2CN(Cc3nccs3)Cc3nccn3C2)n1` (stereo not drawn): -2.68%; for `CCOCC(=O)N1CC[C@H]2OCC[C@@]2(COc2ncccc2F)C1`: -12%.

Turning to `O=C(c1ccncc1)N1CCC2(CC1)C(=O)Nc1ccccc12`, the cytotoxicity at 70.5 h is -10.1%. The same measure for `O=C(c1ccncc1)N1CCOC2(COCCN(c3cccnc3)C2)C1` (stereo not drawn): -8.51%. The same measure for `c1cnc(N2CCOC3(CCCN(c4cnccn4)C3)C2)nc1` (stereo not drawn): -8.79%. The same measure for `CN(C)C[C@]12COC[C@H]1CN(Cc1ccccn1)C2`: -8.89%.

As for `c1cncc(COCC2CN(Cc3cccnc3)Cc3ccnn3C2)c1` (stereo not drawn), the cytotoxicity at 70.5 h is -9.95%.

For the origin of these results see ChEMBL document CHEMBL3507680, “University of Dundee, Gates Library screen for HepG2 cell viability”.
